Measurements: the kinase profiling compilation of Christmann-Franck et al. (2016)

How the values were obtained:
Assay in all cases: radiometric filter-binding kinase assay, Kinase HotSpot
Settings in all cases: compound 0.5 µM; ATP 10 µM
AKT1 (human) = AKT1 (human) (UniProt P31749)
CAMK1D (human) = CAMK1D (human) (UniProt Q8IU85)
CAMK1G (human) = CAMK1G (human) (UniProt Q96NX5)
CAMK2B (human) = CAMK2B (human) (UniProt Q13554)
CAMK2D (human) = CAMK2D (human) (UniProt Q13557)
CDK1 CCNB1 (human) = CDK1 CCNB1 (human) (UniProt P06493+P14635)
CDK3 CCNE1 (human) = CDK3 CCNE1 (human) (UniProt Q00526+P24864)
Chain of CDK3 CCNE1 (human) (P24864 whole entry, looked up): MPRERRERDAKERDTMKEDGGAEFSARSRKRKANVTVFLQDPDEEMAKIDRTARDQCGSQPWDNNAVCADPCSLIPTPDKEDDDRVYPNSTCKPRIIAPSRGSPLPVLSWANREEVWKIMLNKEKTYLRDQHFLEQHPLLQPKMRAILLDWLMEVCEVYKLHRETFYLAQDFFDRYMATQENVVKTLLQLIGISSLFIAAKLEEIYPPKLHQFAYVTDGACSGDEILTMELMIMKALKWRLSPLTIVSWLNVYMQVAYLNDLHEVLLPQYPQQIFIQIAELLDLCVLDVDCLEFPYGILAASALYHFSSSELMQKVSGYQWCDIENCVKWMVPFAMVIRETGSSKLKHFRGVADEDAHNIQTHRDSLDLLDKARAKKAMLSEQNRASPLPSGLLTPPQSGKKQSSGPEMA
Chain of CDK3 CCNE1 (human) (Q00526 whole entry, looked up): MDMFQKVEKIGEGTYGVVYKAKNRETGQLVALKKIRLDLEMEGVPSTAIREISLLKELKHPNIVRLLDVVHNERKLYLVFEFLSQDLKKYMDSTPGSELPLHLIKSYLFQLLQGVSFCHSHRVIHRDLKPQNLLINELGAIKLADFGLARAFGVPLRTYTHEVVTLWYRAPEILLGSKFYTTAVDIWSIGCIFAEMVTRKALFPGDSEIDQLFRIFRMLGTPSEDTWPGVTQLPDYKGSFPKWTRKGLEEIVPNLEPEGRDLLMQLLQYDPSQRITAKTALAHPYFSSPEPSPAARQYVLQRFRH

CDK4 CCND1 (human) = CDK4 CCND1 (human) (UniProt P24385+P11802)
CHEK1 (human) = CHEK1 (human) (UniProt O14757)
CLK2 (human) = CLK2 (human) (UniProt P49760)
CSNK1G1 (human) = CSNK1G1 (human) (UniProt Q9HCP0)
CSNK1G3 (human) = CSNK1G3 (human) (UniProt Q9Y6M4)
CSNK2A2 (human) = CSNK2A2 (human) (UniProt P19784)
Chain of CSNK2A2 (human) (P19784 whole entry, looked up): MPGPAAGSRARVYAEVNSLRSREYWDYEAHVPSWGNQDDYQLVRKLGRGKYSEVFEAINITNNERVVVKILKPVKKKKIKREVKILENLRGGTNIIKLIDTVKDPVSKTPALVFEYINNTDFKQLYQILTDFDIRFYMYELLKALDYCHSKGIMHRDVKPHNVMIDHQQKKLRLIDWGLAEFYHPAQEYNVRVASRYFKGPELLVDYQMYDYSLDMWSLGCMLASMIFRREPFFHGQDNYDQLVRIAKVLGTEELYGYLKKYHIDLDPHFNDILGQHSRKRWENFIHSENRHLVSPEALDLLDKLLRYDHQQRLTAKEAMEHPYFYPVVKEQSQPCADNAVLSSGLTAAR

EGFR (human) = EGFR (human) (UniProt P00533)
EPHA5 (human) = EPHA5 (human) (UniProt P54756)
Chain of EPHA5 (human) (P54756 whole entry, looked up): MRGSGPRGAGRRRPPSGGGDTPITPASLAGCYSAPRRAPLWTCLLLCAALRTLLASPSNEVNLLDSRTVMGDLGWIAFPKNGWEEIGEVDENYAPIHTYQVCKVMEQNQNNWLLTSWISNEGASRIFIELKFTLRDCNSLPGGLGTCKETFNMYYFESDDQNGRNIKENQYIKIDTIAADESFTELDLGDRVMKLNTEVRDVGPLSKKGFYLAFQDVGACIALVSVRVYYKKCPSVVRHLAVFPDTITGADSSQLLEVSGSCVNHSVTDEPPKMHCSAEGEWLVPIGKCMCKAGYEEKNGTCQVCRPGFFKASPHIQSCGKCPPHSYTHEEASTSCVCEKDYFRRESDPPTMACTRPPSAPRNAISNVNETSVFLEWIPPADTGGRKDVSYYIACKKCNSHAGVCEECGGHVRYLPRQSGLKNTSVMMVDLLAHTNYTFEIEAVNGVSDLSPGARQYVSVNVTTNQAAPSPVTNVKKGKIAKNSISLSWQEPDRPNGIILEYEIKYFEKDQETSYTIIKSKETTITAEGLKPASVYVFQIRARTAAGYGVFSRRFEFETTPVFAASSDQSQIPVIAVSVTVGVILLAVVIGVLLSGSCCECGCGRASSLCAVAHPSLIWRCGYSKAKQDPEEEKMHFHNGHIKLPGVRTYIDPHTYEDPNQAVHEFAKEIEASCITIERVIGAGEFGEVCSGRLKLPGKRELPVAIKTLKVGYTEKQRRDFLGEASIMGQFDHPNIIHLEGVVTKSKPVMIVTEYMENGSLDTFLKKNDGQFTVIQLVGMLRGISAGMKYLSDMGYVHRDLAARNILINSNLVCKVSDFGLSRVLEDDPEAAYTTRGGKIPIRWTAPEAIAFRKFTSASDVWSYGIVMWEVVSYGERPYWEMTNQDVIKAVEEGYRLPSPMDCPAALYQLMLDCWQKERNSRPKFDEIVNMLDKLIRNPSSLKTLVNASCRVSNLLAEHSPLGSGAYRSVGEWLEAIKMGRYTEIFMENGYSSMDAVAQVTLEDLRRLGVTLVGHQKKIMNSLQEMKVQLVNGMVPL

EPHA8 (human) = EPHA8 (human) (UniProt P29322)
Chain of EPHA8 (human) (P29322 whole entry, looked up): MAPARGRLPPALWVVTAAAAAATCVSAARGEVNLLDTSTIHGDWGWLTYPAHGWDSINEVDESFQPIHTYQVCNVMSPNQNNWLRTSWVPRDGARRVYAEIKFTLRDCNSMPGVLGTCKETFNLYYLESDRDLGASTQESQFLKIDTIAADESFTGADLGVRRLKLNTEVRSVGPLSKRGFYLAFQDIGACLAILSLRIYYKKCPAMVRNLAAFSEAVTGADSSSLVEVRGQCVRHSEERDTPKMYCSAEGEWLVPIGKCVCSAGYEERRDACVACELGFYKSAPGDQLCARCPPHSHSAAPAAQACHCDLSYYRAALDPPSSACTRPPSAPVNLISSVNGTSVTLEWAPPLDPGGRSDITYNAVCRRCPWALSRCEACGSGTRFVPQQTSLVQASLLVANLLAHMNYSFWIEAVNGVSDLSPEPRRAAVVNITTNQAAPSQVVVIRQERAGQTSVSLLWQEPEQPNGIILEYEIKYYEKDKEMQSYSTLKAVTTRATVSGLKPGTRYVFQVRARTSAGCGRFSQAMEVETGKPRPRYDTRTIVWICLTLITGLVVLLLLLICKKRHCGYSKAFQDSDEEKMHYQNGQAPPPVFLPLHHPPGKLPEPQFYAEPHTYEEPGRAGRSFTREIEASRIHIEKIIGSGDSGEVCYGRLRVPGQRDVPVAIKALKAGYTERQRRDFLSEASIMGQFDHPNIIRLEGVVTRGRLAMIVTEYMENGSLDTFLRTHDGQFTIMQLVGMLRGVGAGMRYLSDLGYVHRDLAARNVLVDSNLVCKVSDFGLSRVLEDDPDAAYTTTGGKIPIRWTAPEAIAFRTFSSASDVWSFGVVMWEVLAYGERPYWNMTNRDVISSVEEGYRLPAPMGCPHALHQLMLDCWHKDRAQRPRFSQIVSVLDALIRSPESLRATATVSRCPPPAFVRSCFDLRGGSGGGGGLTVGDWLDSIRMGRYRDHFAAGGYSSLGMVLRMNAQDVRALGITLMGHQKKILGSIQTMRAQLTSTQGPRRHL

EPHB3 (human) = EPHB3 (human) (UniProt P54753)
FES (human) = FES (human) (UniProt P07332)
FGFR1 (human) = FGFR1 (human) (UniProt P11362)
FGFR4 (human) = FGFR4 (human) (UniProt P22455)
GRK4 (human) = GRK4 (human) (UniProt P32298)
HIPK3 (human) = HIPK3 (human) (UniProt Q9H422)
IKBKB (human) = IKBKB (human) (UniProt O14920)
IKBKE (human) = IKBKE (human) (UniProt Q14164)
MAP2K1 (human) = MAP2K1 (human) (UniProt Q02750)
MAP3K5 (human) = MAP3K5 (human) (UniProt Q99683)
MAP4K4 (human) = MAP4K4 (human) (UniProt O95819)
MAP4K5 (human) = MAP4K5 (human) (UniProt Q9Y4K4)
MAPK13 (human) = MAPK13 (human) (UniProt O15264)
MAPK3 (human) = MAPK3 (human) (UniProt P27361)
MARK1 (human) = MARK1 (human) (UniProt Q9P0L2)
Chain of MARK1 (human) (Q9P0L2 whole entry, looked up): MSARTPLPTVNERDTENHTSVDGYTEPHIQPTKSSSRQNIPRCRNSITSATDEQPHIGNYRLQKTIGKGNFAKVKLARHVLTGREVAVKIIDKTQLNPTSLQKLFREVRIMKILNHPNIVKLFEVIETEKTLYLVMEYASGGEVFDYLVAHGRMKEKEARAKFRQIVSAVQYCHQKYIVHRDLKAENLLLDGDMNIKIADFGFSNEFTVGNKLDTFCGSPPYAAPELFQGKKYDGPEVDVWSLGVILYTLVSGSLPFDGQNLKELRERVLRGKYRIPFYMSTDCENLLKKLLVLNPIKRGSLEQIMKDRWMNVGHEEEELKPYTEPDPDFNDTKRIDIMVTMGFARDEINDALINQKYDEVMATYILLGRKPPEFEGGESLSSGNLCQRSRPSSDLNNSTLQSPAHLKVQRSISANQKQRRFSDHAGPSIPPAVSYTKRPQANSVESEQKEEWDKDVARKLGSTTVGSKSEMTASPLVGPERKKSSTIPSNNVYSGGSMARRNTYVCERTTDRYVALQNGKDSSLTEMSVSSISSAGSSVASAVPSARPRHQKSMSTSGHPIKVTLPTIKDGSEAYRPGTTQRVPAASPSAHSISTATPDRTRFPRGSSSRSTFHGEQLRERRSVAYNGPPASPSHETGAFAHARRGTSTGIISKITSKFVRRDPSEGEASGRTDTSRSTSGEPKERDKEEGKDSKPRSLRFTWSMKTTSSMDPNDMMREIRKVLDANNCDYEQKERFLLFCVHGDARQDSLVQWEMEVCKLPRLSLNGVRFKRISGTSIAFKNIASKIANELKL

MELK (human) = MELK (human) (UniProt Q14680)
NTRK3 (human) = NTRK3 (human) (UniProt Q16288)
PDPK1 (human) = PDPK1 (human) (UniProt O15530)
PHKG1 (human) = PHKG1 (human) (UniProt Q16816)
ROCK2 (human) = ROCK2 (human) (UniProt O75116)
SLK (human) = SLK (human) (UniProt Q9H2G2)
SRMS (human) = SRMS (human) (UniProt Q9H3Y6)
STK3 (human) = STK3 (human) (UniProt Q13188)
TAOK3 (human) = TAOK3 (human) (UniProt Q9H2K8)
TYRO3 (human) = TYRO3 (human) (UniProt Q06418)
ULK2 (human) = ULK2 (human) (UniProt Q8IYT8)

Chain of CAMK2B (human) (Q13554 whole entry, looked up): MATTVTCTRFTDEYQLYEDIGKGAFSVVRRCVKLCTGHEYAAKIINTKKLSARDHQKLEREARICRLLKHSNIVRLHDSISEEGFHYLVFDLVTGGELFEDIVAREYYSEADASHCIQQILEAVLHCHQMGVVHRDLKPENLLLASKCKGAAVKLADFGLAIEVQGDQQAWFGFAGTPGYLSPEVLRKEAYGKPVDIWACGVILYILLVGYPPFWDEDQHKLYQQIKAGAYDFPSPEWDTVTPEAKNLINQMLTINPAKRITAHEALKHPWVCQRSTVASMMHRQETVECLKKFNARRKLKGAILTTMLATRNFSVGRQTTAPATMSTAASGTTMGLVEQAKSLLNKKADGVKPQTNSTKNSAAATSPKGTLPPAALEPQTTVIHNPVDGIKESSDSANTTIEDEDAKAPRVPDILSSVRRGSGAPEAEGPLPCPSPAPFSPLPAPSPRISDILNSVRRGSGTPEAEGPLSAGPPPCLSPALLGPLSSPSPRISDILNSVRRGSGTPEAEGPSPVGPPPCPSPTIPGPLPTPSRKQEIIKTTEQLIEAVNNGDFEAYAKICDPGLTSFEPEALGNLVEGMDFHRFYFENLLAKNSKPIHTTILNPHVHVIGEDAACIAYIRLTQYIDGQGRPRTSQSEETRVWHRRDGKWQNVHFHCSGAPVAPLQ
Chain of CAMK1G (human) (Q96NX5 whole entry, looked up): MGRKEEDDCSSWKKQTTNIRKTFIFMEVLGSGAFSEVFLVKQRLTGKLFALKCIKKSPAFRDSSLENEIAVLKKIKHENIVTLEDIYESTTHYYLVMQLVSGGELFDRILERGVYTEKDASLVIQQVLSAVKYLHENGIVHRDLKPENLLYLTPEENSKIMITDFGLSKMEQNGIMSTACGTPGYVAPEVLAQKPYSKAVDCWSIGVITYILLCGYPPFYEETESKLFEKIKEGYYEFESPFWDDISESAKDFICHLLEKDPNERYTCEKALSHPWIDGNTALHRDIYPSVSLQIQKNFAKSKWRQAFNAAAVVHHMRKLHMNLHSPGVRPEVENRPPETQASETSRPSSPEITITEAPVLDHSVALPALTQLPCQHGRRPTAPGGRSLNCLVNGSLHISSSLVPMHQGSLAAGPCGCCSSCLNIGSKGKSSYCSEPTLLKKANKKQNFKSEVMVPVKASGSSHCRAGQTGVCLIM

SMILES: COc1cc2ncc(-c3ccccc3)nc2cc1OC
- residual activity (AKT1 (human)): 99.2%
- residual activity (CAMK1D (human)): 96.6%
- residual activity (CAMK1G (human)): 95.1%
- residual activity (CAMK2B (human)): 93.3%
- residual activity (CAMK2D (human)): 87.5%
- residual activity (CDK1 CCNB1 (human)): 105%
- residual activity (CDK3 CCNE1 (human)): 83.8%
- residual activity (CDK4 CCND1 (human)): 103%
- residual activity (CHEK1 (human)): 94.7%
- residual activity (CLK2 (human)): 87.4%
- residual activity (CSNK1G1 (human)): 90.1%
- residual activity (CSNK1G3 (human)): 104%
- residual activity (CSNK2A2 (human)): 98.3%
- residual activity (EGFR (human)): 82.9%
- residual activity (EPHA5 (human)): 99.9%
- residual activity (EPHA8 (human)): 93.1%
- residual activity (EPHB3 (human)): 88.6%
- residual activity (FES (human)): 105%
- residual activity (FGFR1 (human)): 92.9%
- residual activity (FGFR4 (human)): 78.7%
- residual activity (GRK4 (human)): 97.8%
- residual activity (HIPK3 (human)): 97.7%
- residual activity (IKBKB (human)): 101%
- residual activity (IKBKE (human)): 98.9%
- residual activity (MAP2K1 (human)): 97.6%
- residual activity (MAP3K5 (human)): 108%
- residual activity (MAP4K4 (human)): 62.1%
- residual activity (MAP4K5 (human)): 99.8%
- residual activity (MAPK13 (human)): 89.6%
- residual activity (MAPK3 (human)): 97.6%
- residual activity (MARK1 (human)): 92.6%
- residual activity (MELK (human)): 88.9%
- residual activity (NTRK3 (human)): 89.1%
- residual activity (PDPK1 (human)): 92.6%
- residual activity (PHKG1 (human)): 92.4%
- residual activity (ROCK2 (human)): 96.1%
- residual activity (SLK (human)): 97.3%
- residual activity (SRMS (human)): 102%
- residual activity (STK3 (human)): 95.7%
- residual activity (TAOK3 (human)): 88.9%
- residual activity (TYRO3 (human)): 100%
- residual activity (ULK2 (human)): 113%

SMILES: Nc1nnc2[nH]c3ccccc3nc1-2
- residual activity (AKT1 (human)): 106%
- residual activity (CAMK1D (human)): 98.3%
- residual activity (CAMK1G (human)): 97.9%
- residual activity (CAMK2B (human)): 90%
- residual activity (CAMK2D (human)): 89.4%
- residual activity (CDK1 CCNB1 (human)): 79.6%
- residual activity (CDK3 CCNE1 (human)): 93.1%
- residual activity (CDK4 CCND1 (human)): 92.4%
- residual activity (CHEK1 (human)): 187%
- residual activity (CLK2 (human)): 96.1%
- residual activity (CSNK1G1 (human)): 99%
- residual activity (CSNK1G3 (human)): 95.6%
- residual activity (CSNK2A2 (human)): 94%
- residual activity (EGFR (human)): 96.4%
- residual activity (EPHA5 (human)): 90.3%
- residual activity (EPHA8 (human)): 104%
- residual activity (EPHB3 (human)): 90.3%
- residual activity (FES (human)): 96.8%
- residual activity (FGFR1 (human)): 93.9%
- residual activity (FGFR4 (human)): 94.9%
- residual activity (GRK4 (human)): 98.9%
- residual activity (HIPK3 (human)): 97.4%
- residual activity (IKBKB (human)): 102%
- residual activity (IKBKE (human)): 99.4%
- residual activity (MAP2K1 (human)): 98.8%
- residual activity (MAP3K5 (human)): 103%
- residual activity (MAP4K4 (human)): 76.2%
- residual activity (MAP4K5 (human)): 96.8%
- residual activity (MAPK13 (human)): 101%
- residual activity (MAPK3 (human)): 113%
- residual activity (MARK1 (human)): 95.7%
- residual activity (MELK (human)): 92.9%
- residual activity (NTRK3 (human)): 92.1%
- residual activity (PDPK1 (human)): 96.8%
- residual activity (PHKG1 (human)): 86.9%
- residual activity (ROCK2 (human)): 93.3%
- residual activity (SLK (human)): 92.5%
- residual activity (SRMS (human)): 88.5%
- residual activity (STK3 (human)): 88.9%
- residual activity (TAOK3 (human)): 97.1%
- residual activity (TYRO3 (human)): 101%
- residual activity (ULK2 (human)): 95.9%

SMILES: CC(C)c1nn(-c2c(Cl)cccc2Cl)c2nc(Cc3ccc(OCCO)cc3)nc(O)c12
- residual activity (AKT1 (human)): 94.7%
- residual activity (CAMK1D (human)): 102%
- residual activity (CAMK1G (human)): 100%
- residual activity (CAMK2B (human)): 104%
- residual activity (CAMK2D (human)): 85.7%
- residual activity (CDK1 CCNB1 (human)): -1.2%
- residual activity (CDK3 CCNE1 (human)): 6.14%
- residual activity (CDK4 CCND1 (human)): 86.8%
- residual activity (CHEK1 (human)): 96.2%
- residual activity (CLK2 (human)): 44%
- residual activity (CSNK1G1 (human)): 101%
- residual activity (CSNK1G3 (human)): 95.7%
- residual activity (CSNK2A2 (human)): 92.2%
- residual activity (EGFR (human)): 95.2%
- residual activity (EPHA5 (human)): 110%
- residual activity (EPHA8 (human)): 102%
- residual activity (EPHB3 (human)): 92.6%
- residual activity (FES (human)): 97.1%
- residual activity (FGFR1 (human)): 84.2%
- residual activity (FGFR4 (human)): 91.5%
- residual activity (GRK4 (human)): 97.3%
- residual activity (HIPK3 (human)): 99%
- residual activity (IKBKB (human)): 103%
- residual activity (IKBKE (human)): 95.6%
- residual activity (MAP2K1 (human)): 99.7%
- residual activity (MAP3K5 (human)): 119%
- residual activity (MAP4K4 (human)): 84.5%
- residual activity (MAP4K5 (human)): 89.9%
- residual activity (MAPK13 (human)): 104%
- residual activity (MAPK3 (human)): 101%
- residual activity (MARK1 (human)): 93.3%
- residual activity (MELK (human)): 84%
- residual activity (NTRK3 (human)): 90.5%
- residual activity (PDPK1 (human)): 94.9%
- residual activity (PHKG1 (human)): 87%
- residual activity (ROCK2 (human)): 92.5%
- residual activity (SLK (human)): 86.9%
- residual activity (SRMS (human)): 91.5%
- residual activity (STK3 (human)): 93.5%
- residual activity (TAOK3 (human)): 91.3%
- residual activity (TYRO3 (human)): 97.8%
- residual activity (ULK2 (human)): 86.6%

SMILES: CN(C)C[C@H]1CCn2c(c(C3=C(c4cn(C)c5ccccc45)C(=O)NC3=O)c3ccccc32)C1
- residual activity (AKT1 (human)): 98.7%
- residual activity (CAMK1D (human)): 101%
- residual activity (CAMK1G (human)): 95.8%
- residual activity (CAMK2B (human)): 96.9%
- residual activity (CAMK2D (human)): 82.4%
- residual activity (CDK1 CCNB1 (human)): 53.7%
- residual activity (CDK3 CCNE1 (human)): 62.4%
- residual activity (CDK4 CCND1 (human)): 86.9%
- residual activity (CHEK1 (human)): 69.8%
- residual activity (CLK2 (human)): 85.9%
- residual activity (CSNK1G1 (human)): 97%
- residual activity (CSNK1G3 (human)): 104%
- residual activity (CSNK2A2 (human)): 92.4%
- residual activity (EGFR (human)): 95.8%
- residual activity (EPHA5 (human)): 95.1%
- residual activity (EPHA8 (human)): 102%
- residual activity (EPHB3 (human)): 105%
- residual activity (FES (human)): 102%
- residual activity (FGFR1 (human)): 87.8%
- residual activity (FGFR4 (human)): 89.6%
- residual activity (GRK4 (human)): 76.4%
- residual activity (HIPK3 (human)): 111%
- residual activity (IKBKB (human)): 105%
- residual activity (IKBKE (human)): 78.8%
- residual activity (MAP2K1 (human)): 98.8%
- residual activity (MAP3K5 (human)): 107%
- residual activity (MAP4K4 (human)): 82.5%
- residual activity (MAP4K5 (human)): 99.9%
- residual activity (MAPK13 (human)): 117%
- residual activity (MAPK3 (human)): 102%
- residual activity (MARK1 (human)): 92.8%
- residual activity (MELK (human)): 96.4%
- residual activity (NTRK3 (human)): 75%
- residual activity (PDPK1 (human)): 97%
- residual activity (PHKG1 (human)): 78.4%
- residual activity (ROCK2 (human)): 98.9%
- residual activity (SLK (human)): 83.1%
- residual activity (SRMS (human)): 109%
- residual activity (STK3 (human)): 102%
- residual activity (TAOK3 (human)): 96.4%
- residual activity (TYRO3 (human)): 99.3%
- residual activity (ULK2 (human)): 105%
